Test results: patent publication US20260042731A1, “(2,4-DICHLOROPHENOXY)ACETIC ACID ANALOGS” (CORTEVA AGRISCIENCE LLC, priority 2022, published 2026)
Where two headings read alike, the source gives them in different places.

Legend:
[1] = test system: weeds ABUTH, AMATA, AMBEL, CHEAL, ERICA; test: Postemergence herbicide evaluation, overall average % weed control (ABUTH, AMATA, AMBEL, CHEAL, ERICA); format: in vivo; settings: post-emergence, read-out: Overall Ave % Weed Control
[2] = Volatility of compounds measured by thermogravimetric analysis (TGA); format: physicochemical
[3] = test system: Amaranthus rudis (AMATA), tall water hemp; test: Postemergence herbicide evaluation, growth of Amaranthus rudis (AMATA); format: in vivo; settings: Amaranthus tuberculatus, post-emergence, read-out: Ave. AMATA, percent reduction in plant size relative to the untreated control
[4] = test system: Abutilon theophrasti (ABUTH), velvetleaf; test: Postemergence herbicide evaluation, growth of Abutilon theophrasti (ABUTH); format: in vivo; settings: Abutilon theophrasti, post-emergence, read-out: AVE. ABUTH, percent reduction in plant size relative to the untreated control
[5] = test system: Chenopodium album (CHEAL), common lambsquarters; test: Postemergence herbicide evaluation, growth of Chenopodium album (CHEAL); format: in vivo; settings: Chenopodium album, post-emergence, read-out: Ave. CHEAL, percent reduction in plant size relative to the untreated control
[6] = test system: Ambrosia artemisiifolia (AMBEL), common ragweed; test: Postemergence herbicide evaluation, growth of Ambrosia artemisiifolia (AMBEL); format: in vivo; settings: Ambrosia artemisiifolia, post-emergence, read-out: AVE. AMBEL, percent reduction in plant size relative to the untreated control

O=C(COc1ccc(Cl)cc1Cl)OCc1ccc(COC(=O)COc2ccc(Cl)cc2Cl)cc1 [Compound B1, 1,4-Phenylenebis(methylene) bis(2-(2,4-dichlorophenoxy)acetate)] gave a pest or weed control at 280 g/ha ([1]; 168 h) of 19%, a pest or weed control at 560 g/ha ([1]; 168 h) of 31% and a pest or weed control at 280 g/ha ([1]; 336 h) of 21%. The pest or weed control at 560 g/ha ([1]; 336 h) was 29%, the pest or weed control at 280 g/ha ([1]; 504 h) was 13% and the pest or weed control at 560 g/ha ([1]; 504 h) was 21%. The “TGA Data (rate of weight loss, volatility)” value [2] was 0.03 µg/min, the pest or weed control at 280 g/ha ([3]; 168 h) was 40% and the pest or weed control at 560 g/ha ([3]; 168 h) was 40%. For the same compound, the pest or weed control at 280 g/ha ([3]; 336 h) was 25%, the pest or weed control at 560 g/ha ([3]; 336 h) was 35% and the pest or weed control at 280 g/ha ([3]; 504 h) was 30%. The pest or weed control at 560 g/ha ([3]; 504 h) was 48%, the pest or weed control at 280 g/ha ([4]; 168 h) was 5% and the pest or weed control at 560 g/ha ([4]; 168 h) was 13%. It also gave a pest or weed control at 280 g/ha ([4]; 336 h) of 8%, a pest or weed control at 560 g/ha ([4]; 336 h) of 5% and a pest or weed control at 280 g/ha ([4]; 504 h) of 8%. The pest or weed control at 560 g/ha ([4]; 504 h) was 3%, the pest or weed control at 280 g/ha ([5]; 168 h) was 15% and the pest or weed control at 560 g/ha ([5]; 168 h) was 55%. For the same compound, the pest or weed control at 280 g/ha ([5]; 336 h) was 25%, the pest or weed control at 560 g/ha ([5]; 336 h) was 53% and the pest or weed control at 280 g/ha ([5]; 504 h) was 20%. The pest or weed control at 560 g/ha ([5]; 504 h) was 33%, the pest or weed control at 280 g/ha ([6]; 168 h) was 23% and the pest or weed control at 560 g/ha ([6]; 168 h) was 20%. It also gave a pest or weed control at 280 g/ha ([6]; 336 h) of 18%, a pest or weed control at 560 g/ha ([6]; 336 h) of 18% and a pest or weed control at 280 g/ha ([6]; 504 h) of 0%. The pest or weed control at 560 g/ha ([6]; 504 h) was 5%.
